These results are taken from ChEMBL document CHEMBL3044748, “Phyllostictines AD, oxazatricycloalkenones produced by Phyllosticta cirsii, a potential mycoherbicide for Cirsium arvense biocontrol” (Tetrahedron, 2008).

The source made the active and inactive calls. The rule behind the calls is not given here.

The test system of data set [1] is Cirsium arvense. In words: Phytotoxic activity against Cirsium arvense (Canada thistle) assessed as necrosis spot at 6 x 10^-3 M after 3 days by leaf puncture assay. The class given is functional, organism-based.
For data set [2], the system named is Geotrichum candidum. In words: Antifungal activity against Galactomyces geotrichum up to 100 ug/disk. Type of data set: functional, organism-based.
For data set [3], the system named is Artemia salina. The data set is described as follows: Zootoxic activity against larvae of Artemia salina (brine shrimp) assessed as mortality. The class given is ADME, organism-based. Conditions: in vivo.
Data set [4] has as its system Escherichia coli. In words: Antibacterial activity against Escherichia coli up to 100 ug/disk. The class given is functional, organism-based.
Data set [5] concerns Lactobacillus sp. The data set is described as follows: Antibacterial activity against Lactobacillus sp. at 5 ug/disk. The class given is functional, organism-based.
A short description of data set [6]: Zootoxic activity against larvae of Artemia salina (brine shrimp) assessed as mortality at 10^-4 M. Type of data set: ADME, organism-based. Conditions: in vivo.

What is called mortality is the percentage killed.

In the case of `CCN1C(=O)/C2=C3\CO[C@@](OC)([C@@H](O)CCCCC[C@]21C(C)O)[C@H]3O` (some centres not stated), in data set [1], the result was inactive.

As to `CO[C@]12OC/C(=C3\C(=O)N(C)CC[C@]3(C)C(=O)CCCC[C@@H]1O)[C@@H]2O`, the outcome in data set [1] was Active.

As to `CCN1C(=O)/C2=C3\CO[C@@](OC)([C@@H](O)CCC[C@]21C)[C@H]3O` [PHYLLOSTICTINE B], the outcome in data set [1] and in data set [5] was Active. Also, the result in data set [2] and in data set [4] was inactive. Further, the Activity result in data set [3] was “Non-toxic”.

For the molecule `CCN1C(=O)/C2=C3\CO[C@@](OC)([C@@H](O)CCCCC[C@]21C)[C@H]3O` [PHYLLOSTICTINE A], the outcome in data set [1] and in data set [5] was Active. Also, the outcome in data set [2] and in data set [4] was inactive. The mortality at 100 µM in data set [6] is 24%.
